We go through 3 compounds from BindingDB's records for patent US9776990 (Abbvie, 2017).

SMILES strings stand for the structures.

The target in this assay is Bromodomain-containing protein 4 (Homo sapiens, UniProt O60885).
The Ki is a dissociation constant, usually derived from enzyme kinetics or from competition with a known ligand. High values mean a looser hold on the target, low ones a stronger hold on the target. `Cc1[nH]c(-c2ccccc2CN2C(=O)c3ccccc3C2=O)c2c1C(=O)CCC2` [US9776990, Example 26]: the affinity corresponds to a Ki of 10.4 µM. In turn, `Cc1[nH]c(-c2cccc3ccccc23)c2c1C(=O)CCC2` [US9776990, Example 19] displayed an inhibitory constant (Ki) of 19.7 µM.

The compound `Cc1[nH]c(-c2ccccc2Oc2ccccc2)c2c1C(=O)CC(CC(C)C)C2` (stereo not drawn) [US9776990, Example 68] registered a Ki of 22.2 µM.
